Like-named read-outs stand apart in the source and are kept apart here.
Columns and labels:
[1] = Physiological data: indirect blood pressure, pulse, rectal temperature, weight; type: in vivo, sheep; details: sheep #980 Dudley
Excerpt: Daily rectal temperatures were taken and any behavioral/motor changes were noted. Gait monitoring will be conducted as described below based on a four-grade scale for the evaluation of behavioral and motor changes. Grade 0: animal standing, sheep is able to rise and ambulate without any difficulty. Grade 1: Shuffling of either rear leg or slight limp; slight distortion of normal spinal axis. Grade 2: Loss of righting reflex in one of the rear legs, sheep able to stand without assistance, but with some difficulty. Grade 3: Inability to maintain standing posture; attempts to help animal stand are unsuccessful.
Indirect blood pressure, pulse recording, pain testing (mechanical stimulus device, cold and warm water baths see description in procedure) and weight were taken on days 1, 3, 7, 15, 22, 29, 36, and 43. Venous blood samples (15 ml drawn from the jugular vein with Vacutainer brand blood collection tubes) for complete blood count, electrolytes, and extended blood chemistry were drawn on days 1, 15, and 43 (mild procedure only light hand restraint necessary).

[2] = test system: neuropathic pain model in the sheep; assay: Neuropathic pain model in sheep, behavior monitoring (Observer 3.0) with visual analog pain score; type: in vivo
Excerpt: The neuropathic pain model in the sheep is created by placing four tight ligatures around the median, radial, or ulnar nerve (or a combination thereof) with 0-chromic gut suture. This method produces a chronic painful peripheral mononeuropathy which may be related to those conditions seen in humans with causalgia and reflex sympathetic dystrophy.
To evaluate animal behavior, the Observer 3.0 software (Noldus Information Technology, The Netherlands) was used to aid docmentation of a daily record of multiple traits. […] The behavior was then interpreted into a visual analog pain score (VAS), where 0 represents no pain and 100 represents severe pain.
Approximately three days prior to surgery each sheep will undergo a 15-minute baseline behavior evaluation. The observations made in this evaluation include, a computerized behavior software recording (the Observer) for 15minutes—gait monitoring—and recording of pain perception via visual analog scale-using the Observer. In some animals, recording of vital signs (blood pressure, heart rate, respirations per minute) will be performed using the Observer. Baseline values for pain perception are recorded via the mechanical stimulus device and/or behavior monitoring will also be performed at this time.
The sheep will be observed daily postoperatively. […] Observations of neuropathic pain development include changes in ambulation, alertness, appetite, urination, defecation, herding activity, body temperature and pain behaviors. This daily behavior is recorded utilizing the observer (an observational software system).

[3] = Toxicity in neuropathic pain sheep: clinical signs, necropsy, histopathology; type: in vivo; details: sheep #604 Clint
Excerpt: Animals will be observed daily for any signs of clinical toxicity such as limping and loss of appetite. At necropsy the spinal cord will be examined for any gross changes. Histopathologic evaluation will be performed on all animals after drug studies are complete. These examinations will detect any neurotoxicity that may be present due to the spinal infusion of midazolam.

[4] = cited from earlier work
[5] = sheep #980 Dudley, MDZ 2 mg per day
[6] = sheep #980 Dudley, MDZ 2 mg per day, daily values
[7] = sheep #980 Dudley, MDZ 3 mg per day
[8] = sheep #980 Dudley, MDZ 3 mg per day, daily values, first and second course
[9] = sheep #980 Dudley, MDZ 4 mg per day
[10] = sheep #980 Dudley, MDZ 5 mg per day, daily values
[11] = sheep #980 Dudley, MDZ 6 mg per day
[12] = sheep #980 Dudley, MDZ 6 mg per day, daily values
[13] = sheep #980 Dudley, MS 1 mg per day, daily values
[14] = sheep #980 Dudley, MS 2 mg per day
[15] = sheep #980 Dudley, MS 3 mg per day, daily values
[16] = sheep #980 Dudley, MS 4 mg per day
[17] = sheep #980 Dudley, MS 5 mg per day
[18] = sheep #980 Dudley, MS 5 mg per day, daily values
[19] = sheep #980 Dudley, MS 6 mg per day
[20] = sheep #980 Dudley, MS 6.5 mg per day, daily values

For `Cc1ncc2n1-c1ccc(Cl)cc1C(c1ccccc1F)=NC2` [MDZ], the Resp per min. ([1]; MDZ 4 mg per day) was 58 per min, the “Other behavior: Defaecation” value [2, 5] was 0.65% and the “Other behavior: Eating lying” value [2, 5] was 1.69%. The “Other behavior: Ruminating laying down” value [2, 5] was 98.28%,, the “Other behavior: Ruminating standing” value [2, 5] was 0.48% and the Grind teeth [2, 6] was 0%. For the same compound, the Other behavior [2, 6] was 0, the “Other behavior: Defaecation” value [2, 7] was 0.49% and the “Other behavior: Drinking” value [2, 7] was 0.6%. The “Other behavior: Eating lying” value [2, 7] was 1.14%, the Grind teeth [2, 8] was 0% and the “Holding unoperated leg off the ground” value [2, 8] was 0%. For the same compound, the Other behavior [2, 8] was 0, the Eating [2, 9] was 36.49% and the Grind teeth [2, 9] was 0%. For the same compound, the “Holding operated leg off the ground” value [2, 9] was 2.78%, the “Holding unoperated leg off the ground” value [2, 9] was 0.36% and the Laying down [2, 9] was 0%. For the same compound, the “Not bearing weight on operated leg” value [2, 9] was 29.65%, the “Observe Operated leg” value [2, 9] was 1.51% and the “Other behavior: Bleating” value [2, 9] was 0.76%. The “Pain Score” value [2, 9] was 50%, the Standing [2, 9] was 0.52% and the Walking [2, 9] was 1.09%. The Grind teeth [2, 10] was 0%, the “Holding unoperated leg off the ground” value [2, 10] was 0% and the Laying down [2, 10] was 0%. The “Observe Operated leg” value [2, 10] was 0%, the “Pain Score” value [2, 10] was 85% and the Standing [2, 10] was 0%. For the same compound, the “Other behavior: Defaecation” value [2, 11] was 0.94%, the “Other behavior: Eating lying” value [2, 11] was 0.21% and the “Other behavior: Pulling wool” value [2, 11] was 0.26%,. The Grind teeth [2, 12] was 0%, the “Holding unoperated leg off the ground” value [2, 12] was 0% and the Laying down [2, 12] was 0%. The Other behavior [2, 12] was 0 and the Standing [2, 12] was 0%.
For `CN1CC[C@]23c4c5ccc(O)c4O[C@H]2[C@@H](O)C=C[C@H]3[C@H]1C5.O=S(=O)(O)O` [morphine, morphine sulfate], the “Pain Score” value ([2]; Sheep #604 Clint, 6 mg Morphine per day intrathecal, first infusion period, Dec. 7, 2001, day of study 0) was 60%, the “Pain Score” value ([2]; Sheep #604 Clint, 6 mg Morphine per day intrathecal, first infusion period, Dec. 8, 2001, day of study 1) was 60% and the “Pain Score” value ([2]; Sheep #604 Clint, 6 mg Morphine per day intrathecal, first infusion period, Dec. 9, 2001, day of study 2) was 60%. For the same compound, the “Pain Score” value ([2]; Sheep #604 Clint, 6 mg Morphine per day intrathecal, first infusion period, Dec. 11, 2001, day of study 4) was 45%, the “Pain Score” value ([2]; Sheep #604 Clint, 6 mg Morphine per day intrathecal, first infusion period, Dec. 12, 2001, day of study 5) was 30% and the “Pain Score” value ([2]; Sheep #604 Clint, 6 mg Morphine per day intrathecal, first infusion period, Dec. 13, 2001, day of study 6) was 35%. The “Pain Score” value ([2]; Sheep #604 Clint, 6 mg Morphine per day intrathecal, first infusion period, Dec. 14, 2001, day of study 7) was 40%, the “Pain Score” value ([2]; Sheep #604 Clint, 6 mg Morphine per day intrathecal, first infusion period, Dec. 15, 2001, day of study 8) was 50% and the “Pain Score” value ([2]; Sheep #604 Clint, 6 mg Morphine per day intrathecal, first infusion period, Dec. 16, 2001, day of study 9) was 40%. For the same compound, the “Pain Score” value ([2]; Sheep #604 Clint, 6 mg Morphine per day intrathecal, first infusion period, Dec. 17, 2001, day of study 10) was 33%, the “Pain Score” value ([2]; Sheep #604 Clint, 6 mg Morphine per day intrathecal, first infusion period, Dec. 18, 2001, day of study 11) was 35% and the “Pain Score” value ([2]; Sheep #604 Clint, 6 mg Morphine per day intrathecal, first infusion period, Dec. 19, 2001, day of study 12) was 35%. The “Pain Score” value ([2]; Sheep #604 Clint, 6 mg Morphine per day intrathecal, first infusion period, Dec. 20, 2001, day of study printed 0, changed to saline at 1:30 PM) was 33%, the “Pain Score” value ([2]; Sheep #604 Clint, 6 mg Morphine per day intrathecal, second infusion period after saline, Dec. 29, 2001, day of study 1) was 50% and the “Pain Score” value ([2]; Sheep #604 Clint, 6 mg Morphine per day intrathecal, second infusion period after saline, Dec. 30, 2001, day of study 2) was 40%. The “Pain Score” value ([2]; Sheep #604 Clint, 6 mg Morphine per day intrathecal, second infusion period after saline, Dec. 31, 2001, day of study 3) was 38%, the “Pain Score” value ([2]; Sheep #604 Clint, 6 mg Morphine per day intrathecal, second infusion period after saline, Jan. 1, 2002, day of study 4) was 40% and the “Pain Score” value ([2]; Sheep #604 Clint, 6 mg Morphine per day intrathecal, second infusion period after saline, Jan. 2, 2002, day of study 5) was 30%. For the same compound, the “Pain Score” value ([2]; Sheep #604 Clint, 6 mg Morphine per day intrathecal, second infusion period after saline, Jan. 3, 2002, day of study 6) was 33%, the “Pain Score” value ([2]; Sheep #604 Clint, 6 mg Morphine per day intrathecal, second infusion period after saline, Jan. 4, 2002, day of study 7) was 30% and the “Pain Score” value ([2]; Sheep #604 Clint, 6 mg Morphine per day intrathecal, second infusion period after saline, Jan. 5, 2002, day of study 8) was 30%. For the same compound, the “Pain Score” value ([2]; Sheep #604 Clint, 6 mg Morphine per day intrathecal, second infusion period after saline, Jan. 6, 2002, day of study 9) was 30%, the “Pain Score” value ([2]; Sheep #604 Clint, 6 mg Morphine per day intrathecal, second infusion period after saline, Jan. 7, 2002, day of study 10) was 30% and the “Pain Score” value ([2]; Sheep #604 Clint, 6 mg Morphine per day intrathecal, second infusion period after saline, Jan. 8, 2002, day of study 11) was 30%. The “Pain Score” value ([2]; Sheep #604 Clint, 6 mg Morphine per day intrathecal, second infusion period after saline, Jan. 9, 2002, day of study 12, pump then refilled with saline at 9:44 AM) was 15%, the average pain score ([2]; sheep #604 Clint, first 13 days of infusion at 6 mg/day) was 43% and the average pain scores ([2]; sheep #604 Clint, later infusions begun with either morphine or saline) was 30-50%. The average pain score ([2]; sheep #980 Dudley, 1 mg/day gradually increased to 6 mg/day) was 76%, the Pain Score ([2]; sheep #980 Dudley, 6.5 mg/day after 13 days of treatment) was 20% and the “clinical behavior during therapy” value ([3]; intrathecal) was “restlessness, pain behaviors such as biting itself near the area of the catheter tip, and frequently laying down”. The “necropsy, spinal cord” value ([3]; lesion 0.8 cm (L)×0.5 cm (W)×0.3 cm (Depth)) was “cavitated lesion in the spinal cord in front of the catheter tip”, the “approximate equipotent dose, IV” value ([4]; in vivo, iv) was 200 and the “approximate equipotent dose, PO” value ([4]; in vivo, po) was 600. For the same compound, the “approximate equipotent dose, IT” value ([4]; in vivo) was 10.
Compound `CN1CC[C@]23c4c5ccc(O)c4O[C@H]2[C@@H](O)C=C[C@H]3[C@H]1C5.CN1CC[C@]23c4c5ccc(O)c4O[C@H]2[C@@H](O)C=C[C@H]3[C@H]1C5.O=S(=O)(O)O` [MS] has a Resp per min. ([1]; MS 2 mg per day) of 22 per min, a Resp per min. ([1]; MS 4 mg per day) of 64 per min and a Resp per min. ([1]; MS 6 mg per day) of 64 per min. For the same compound, the “Other behavior: Drink” value ([2]; sheep #980 Dudley, MS 1 mg per day) was 0.5%, the Laying down [2, 13] was 0% and the Other behavior [2, 13] was 0. For the same compound, the Eating [2, 14] was 0%, the Grind teeth [2, 14] was 1.39% and the “Holding operated leg off the ground” value [2, 14] was 15.88%. The “Holding unoperated leg off the ground” value [2, 14] was 0%, the Laying down [2, 14] was 0% and the “Not bearing weight on operated leg” value [2, 14] was 64.74%. For the same compound, the “Observe Operated leg” value [2, 14] was 0.19%, the Other behavior [2, 14] was 0 and the “Pain Score” value [2, 14] was 90%. For the same compound, the Standing [2, 14] was 17.34%, the Walking [2, 14] was 0.47% and the “Other behavior: Ruminating standing” value ([2]; sheep #980 Dudley, MS 3 mg per day) was 2.69%. For the same compound, the “Holding unoperated leg off the ground” value [2, 15] was 0%, the Laying down [2, 15] was 0% and the Other behavior [2, 15] was 0. For the same compound, the “Pain Score” value [2, 15] was 85%, the Standing [2, 15] was 0% and the Eating [2, 16] was 4.72%. The Grind teeth [2, 16] was 0%, the “Holding operated leg off the ground” value [2, 16] was 5.2% and the “Holding unoperated leg off the ground” value [2, 16] was 0%. For the same compound, the Laying down [2, 16] was 0%, the “Not bearing weight on operated leg” value [2, 16] was 69.53% and the “Observe Operated leg” value [2, 16] was 0%. The “Other behavior: Ruminating standing” value [2, 16] was 15.2%, the “Pain Score” value [2, 16] was 83% and the Standing [2, 16] was 0%. For the same compound, the Walking [2, 16] was 5.36%, the “Other behavior: Bleating” value [2, 17] was 0.98% and the “Other behavior: Eating lying” value [2, 17] was 0.7%,. For the same compound, the “Other behavior: Pulling wool” value [2, 17] was 0.28%,, the “Other behavior: pawing ground” value [2, 17] was 0.85% and the Grind teeth [2, 18] was 0%. It also gave a Standing [2, 18] of 0%, an Eating [2, 19] of 0% and a Grind teeth [2, 19] of 0%. For the same compound, the “Holding operated leg off the ground” value [2, 19] was 9.77%, the “Holding unoperated leg off the ground” value [2, 19] was 0.52% and the Laying down [2, 19] was 43.57%. For the same compound, the “Not bearing weight on operated leg” value [2, 19] was 35.43%, the “Observe Operated leg” value [2, 19] was 0.66% and the Other behavior [2, 19] was 0. For the same compound, the “Pain Score” value [2, 19] was 80%, the Standing [2, 19] was 0.99% and the Walking [2, 19] was 9.07%. For the same compound, the “Other behavior: Eating lying” value ([2]; sheep #980 Dudley, MS 6.5 mg per day) was 9.31%, the “Holding unoperated leg off the ground” value [2, 20] was 0% and the Other behavior [2, 20] was 0.
For `COc1ccc2c3c1O[C@H]1C(=O)CC[C@@]4(O)[C@@H](C2)N(C)CC[C@]314` [Oxycodone], the “approximate equipotent dose, IT” value ([4]; route IT) is listed as 10, the “approximate equipotent dose, IV” value ([4]; route IV) is listed as 200 and the “approximate equipotent dose, PO” value ([4]; route PO) is listed as 600.

Source: patent publication US20040006070A1, “Intraspinal continuous infusion of midazolam hydrochloride for the treatment of pain” (priority 2002, published 2004)
